Measured values taken from patent US20230382889A1 (Volastra Therapeutics, Inc., priority 2022, published 2023).

Each compound was assayed against hKIF18A (1-374) (Homo sapiens (Human), UniProt Q8NI77) (assay: Inhibition of KIF18A microtubule-dependent ATPase activity (ADP-Glo)). Details: 4 nM hKIF18A (1-374).
Type: biochemical
Protocol: Test compounds were plated in a 3× dilution scheme in a 384-well plate. Assay buffer: 80 mM PIPES (pH 6.9), 1 mM MgCl2, 75 mM KCl, 1 mM EGTA, 1 mM DTT, 0.01% BSA, 0.005% Tween-20, 1 μM Taxol in H2O. […] After incubation at room temperature for 30 min, 2.5 μL of microtubule mix was added [0.2 mg/mL pre-formed microtubules, 2.0 mM ATP in assay buffer], the plate was centrifuged for 30 s and then incubated at 28° C. for 60 min. 5 μL of Promega® ADP-Glo Max R1 was added, the plate was centrifuged for 30 s, and the mixture incubated for 4 h at room temperature. 10 μL of Promega® ADP-Glo Max R2 was added, the plate centrifuged for 30 s, and incubated for 60 min at room temperature. Luminescence was measured with an Envision plate reader, and % Inhibition was calculated for each well as: ([max−min]−[test−min])/[max−min]. IC50 values were calculated from concentration vs. % Inhibition data via a four-parameter variable slope model.

Sequence of hKIF18A (1-374) (Q8NI77 1-374): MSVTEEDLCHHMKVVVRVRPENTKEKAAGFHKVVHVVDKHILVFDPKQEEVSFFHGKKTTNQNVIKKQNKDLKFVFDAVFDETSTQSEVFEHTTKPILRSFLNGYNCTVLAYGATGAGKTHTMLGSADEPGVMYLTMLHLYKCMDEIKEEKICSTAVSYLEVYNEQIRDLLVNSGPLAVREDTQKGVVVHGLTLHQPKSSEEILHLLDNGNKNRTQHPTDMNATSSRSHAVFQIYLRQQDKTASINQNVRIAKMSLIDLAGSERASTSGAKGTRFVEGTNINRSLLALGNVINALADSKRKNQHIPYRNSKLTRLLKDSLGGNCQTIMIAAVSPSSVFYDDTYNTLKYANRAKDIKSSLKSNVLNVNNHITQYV

| IC50 [nM] | SMILES |
| --- | --- |
| 17 | CCS(=O)(=O)Nc1ccc(-n2cc(-c3cnc(C)c(N4CCC(F)(F)CC4)n3)nn2)c(N2CCC3(CC2)CC3)c1 [Compound 145, N-(4-(4-(6-(4,4-difluoropiperidin-1-yl)-5-methylpyrazin-2-yl)-1H-1,2,3-triazol-1-yl)-3-(6-azaspiro[2.5]octan-6-yl)phenyl)ethanesulfonamide] |
| 40 | Cc1cc(-c2cn(-c3ccc(NS(=O)(=O)C4CC4)cc3N3CCC4(CC3)CC4)nn2)nc(C(O)C2CCCC2)c1 (stereo not shown) [Compound 139, N-(4-(4-(6-(cyclopentyl(hydroxy)methyl)-4-methylpyridin-2-yl)-1H-1,2,3-triazol-1-yl)-3-(6-azaspiro[2.5]octan-6-yl)phenyl)cyclopropanesulfonamide] |
| 6 | O=S(=O)(CCO)Nc1ccc(-n2cc(-c3cncc(OC4CCCC4)n3)nn2)c(N2CCC3(CC2)CC3)c1 [Compound 150, N-(4-(4-(6-(cyclpentyloxy)pyrazin-2-yl)-1H-1,2,3-triazol-1-yl)-3-(6-azaspiro[2.5]octan-6-yl)phenyl)-2-hydroxyethane-1-sulfonamide] |
| 14 | O=S(=O)(CCO)Nc1ccc(-c2cn(-c3ccc(F)c(S(=O)(=O)N4CC(F)(F)C4)c3)nn2)c(N2CCC3(CC2)CC3)c1 [Compound 129, N-(4-(1-(3-((3,3-difluoroazetidin-1-yl)sulfonyl)-4-fluorophenyl)-1H-1,2,3-triazol-4-yl)-3-(6-azaspiro[2.5]octan-6-yl)phenyl)-2-hydroxyethane-1-sulfonamide] |
| 74 | CC(C)(C)NS(=O)(=O)c1cccc(-c2cnc(-c3ccc(NS(C)(=O)=O)cc3N3CCC4(CC3)CC4)[nH]2)c1 [Compound 34, N-(tert-butyl)-3-(2-(4-(methylsulfonamido)-2-(6-azaspiro[2.5]octan-6-yl)phenyl)-1H-imidazol-5-yl)benzenesulfonamide] |
| 16 | O=S(=O)(CCO)Nc1ccc(-n2cc(-c3ccc(F)c(N4CC5CC5C4)n3)nn2)c(N2CCC3(CC2)CC3)c1 (stereo not shown) [Compound 153, N-(4-(4-(6-(3-azabicyclo[3.1.0]hexan-3-yl)-5-fluoropyridin-2-yl)-1H-1,2,3-triazol-1-yl)-3-(6-azaspiro[2.5]octan-6-yl)phenyl)-2-hydroxyethane-1-sulfonamide] |
| 7.1 | O=S(=O)(CCO)Nc1ccc(-n2cc(-c3ccc(F)c(N4CCCCO4)n3)nn2)c(N2CCC3(CC2)CC3)c1 [Compound 154, N-(4-(4-(5-fluoro-6-(1,2-oxazinan-2-yl)pyridin-2-yl)-1H-1,2,3-triazol-1-yl)-3-(6-azaspiro[2.5]octan-6-yl)phenyl)-2-hydroxyethane-1-sulfonamide] |
| 7.2 | CS(=O)(=O)Nc1ccc(-n2cc(-c3csc(N4CCC(F)(F)CC4)n3)nn2)c(N2CCC3(CC2)CC3)c1 [Compound 50, N-(4-(4-(2-(4,4-difluoropiperidin-1-yl)thiazol-4-yl)-1H-1,2,3-triazol-1-yl)-3-(6-azaspiro[2.5]octan-6-yl)phenyl)methanesulfonamide] |
| 6.3 | CCS(=O)(=O)Nc1ccc(-n2cc(-c3cncc(N4CCC(F)(F)CC4)n3)nn2)c(N2CCC3(CC2)CC3)c1 [Compound 137, N-(4-(4-(6-(4,4-difluoropiperidin-1-yl)pyrazin-2-yl)-1H-1,2,3-triazol-1-yl)-3-(6-azaspiro[2.5]octan-6-yl)phenyl)ethanesulfonamide] |
| 20 | Cc1cc(-c2cn(-c3ccc(NS(=O)(=O)CCO)cc3N3CCC4(CC3)CC4)nn2)nc(N2CCC(C(F)F)C2)n1 (stereo not shown) [Compound 103, N-(4-(4-(2-(3-(difluoromethyl)pyrrolidin-1-yl)-6-methylpyrimidin-4-yl)-1H-1,2,3-triazol-1-yl)-3-(6-azaspiro[2.5]octan-6-yl)phenyl)-2-hydroxyethane-1-sulfonamide] |
| 26 | O=S(=O)(CCO)Nc1ccc(-c2cn(-c3ccc(F)c(N4CC5CC5C4)n3)nn2)c(N2CCC3(CC2)CC3)c1 (stereo not shown) [Compound 142, N-(4-(1-(6-(3-azabicyclo[3.1.0]hexan-3-yl)-5-fluoropyridin-2-yl)-1H-1,2,3-triazol-4-yl)-3-(6-azaspiro[2.5]octan-6-yl)phenyl)-2-hydroxyethane-1-sulfonamide] |
| 6.5 | CS(=O)(=O)Nc1ccc(-n2cc(-c3cccc(N4CC(F)(F)C4)n3)nn2)c(N2CCC3(CC2)CC3)c1 [Compound 60, N-(4-(4-(6-(3,3-difluoroazetidin-1-yl)pyridin-2-yl)-1H-1,2,3-triazol-1-yl)-3-(6-azaspiro[2.5]octan-6-yl)phenyl)methanesulfonamide] |
| 10 | O=S(=O)(CCO)Nc1ccc(-n2cc(-c3nc(N4CCC(F)(F)CC4)sc3F)nn2)c(N2CCC3(CC2)CC3)c1 [Compound 93, N-(4-(4-(2-(4,4-difluoropiperidin-1-yl)-5-fluorothiazol-4-yl)-1H-1,2,3-triazol-1-yl)-3-(6-azaspiro[2.5]octan-6-yl)phenyl)-2-hydroxyethane-1-sulfonamide] |
| 75 | Cc1cc(N2CCC(F)(F)CC2)nc(-n2cc(-c3ccc(NS(=O)(=O)C4CC4)cc3N3CCC4(CC3)CC4)nn2)c1 [Compound 105, N-(4-(1-(6-(4,4-difluoropiperidin-1-yl)-4-methylpyridin-2-yl)-1H-1,2,3-triazol-4-yl)-3-(6-azaspiro[2.5]octan-6-yl)phenyl)cyclopropanesulfonamide] |
| 68 | O=S(=O)(CCO)Nc1ccc(-c2cn(-c3ccc(F)c(S(=O)(=O)N4CC(F)(F)C4)c3)nn2)c(N2CCC3(CC2)CC3)n1 [Compound 111, N-(5-(1-(3-((3,3-difluoroazetidin-1-yl)sulfonyl)-4-fluorophenyl)-1H-1,2,3-triazol-4-yl)-6-(6-azaspiro[2.5]octan-6-yl)pyridin-2-yl)-2-hydroxyethane-1-sulfonamide] |
| 280 | CS(=O)(=O)Nc1ccc(-c2nnc(-c3cccc4c3OCCC4)[nH]2)c(N2CCC3(CC2)CC3)c1 [Compound 3, N-(4-(5-(chroman-8-yl)-4H-1,2,4-triazol-3-yl)-3-(6-azaspiro[2.5]octan-6-yl)phenyl)methanesulfonamide] |
| 3.4 | CS(=O)(=O)Nc1ccc(-n2cc(-c3cncc(N4CCC(F)(F)CC4)n3)nn2)c(N2CCC3(CC2)CC3)c1 [Compound 63, N-(4-(4-(6-(4,4-difluoropiperidin-1-yl)pyrazin-2-yl)-1H-1,2,3-triazol-1-yl)-3-(6-azaspiro[2.5]octan-6-yl)phenyl)methanesulfonamide] |
| 15 | Cc1cc(-c2cn(-c3ccc(NS(=O)(=O)CCO)cc3N3CCC(C(F)F)CC3)nn2)nc(N2CCC(F)(F)CC2)c1 [Compound 104, N-(3-(4-(difluoromethyl)piperidin-1-yl)-4-(4-(6-(4,4-difluoropiperidin-1-yl)-4-methylpyridin-2-yl)-1H-1,2,3-triazol-1-yl)phenyl)-2-hydroxyethane-1-sulfonamide] |
| 44 | Cc1cc(-c2cn(-c3ccc(NS(=O)(=O)CCO)cc3N3CCC4(CC3)CC4)nn2)nc(N2C[C@@H](F)[C@H](F)C2)c1 [Compound 115, N-(4-(4-(6-((3R,4R)-3,4-difluoropyrrolidin-1-yl)-4-methylpyridin-2-yl)-1H-1,2,3-triazol-1-yl)-3-(6-azaspiro[2.5]octan-6-yl)phenyl)-2-hydroxyethane-1-sulfonamide] |
| 283 | CS(=O)(=O)Nc1ccc(-n2cc(-c3cccc(N4CCC(F)(F)CC4)n3)nn2)c(N2CC3CC3C2)c1 (stereo not shown) [Compound 165, N-(3-(3-azabicyclo[3.1.0]hexan-3-yl)-4-(4-(6-(4,4-difluoropiperidin-1-yl)pyridin-2-yl)-1H-1,2,3-triazol-1-yl)phenyl)methanesulfonamide] |
| 41 | CS(=O)(=O)Nc1ccc(-n2cc(-c3cccc(N4CC5(CCO5)C4)n3)nn2)c(N2CCC3(CC2)CC3)c1 [Compound 58, N-(4-(4-(6-(1-oxa-6-azaspiro[3.3]heptan-6-yl)pyridin-2-yl)-1H-1,2,3-triazol-1-yl)-3-(6-azaspiro[2.5]octan-6-yl)phenyl)methanesulfonamide] |
| 12 | CCS(=O)(=O)Nc1ccc(-n2cc(-c3cc(C)cc(C(O)C4CCC4)n3)nn2)c(N2CCC3(CC2)CC3)c1 (stereo not shown) [Compound 133, N-(4-(4-(6-(cyclobutyl(hydroxy)methyl)-4-methylpyridin-2-yl)-1H-1,2,3-triazol-1-yl)-3-(6-azaspiro[2.5]octan-6-yl)phenyl)ethanesulfonamide] |
| 140 | O=S(=O)(CCO)Nc1ccc(-n2cc(-c3csc(N4CCCC4)n3)nn2)c(N2CCC3(CC2)CC3)c1 [Compound 81, 2-hydroxy-N-(4-(4-(2-(pyrrolidin-1-yl)thiazol-4-yl)-1H-1,2,3-triazol-1-yl)-3-(6-azaspiro[2.5]octan-6-yl)phenyl)ethane-1-sulfonamide] |
| 1100 | CS(=O)(=O)Nc1ccc(-n2cc(-c3cccc(N4CCC(F)(F)CC4)n3)nn2)c(N2CCCC2)c1 [Compound 16, N-(4-(4-(6-(4,4-difluoropiperidin-1-yl)pyridin-2-yl)-1H-1,2,3-triazol-1-yl)-3-(pyrrolidin-1-yl)phenyl)methanesulfonamide] |

| SMILES | IC50 [nM] |
| --- | --- |
| CS(=O)(=O)Nc1ccc(-n2cc(-c3cccc(N4CCC(F)(F)CC4)n3)nn2)c(N2CC3CC(C3)C2)c1 [Compound 53, N-(3-(3-azabicyclo[3.1.1]heptan-3-yl)-4-(4-(6-(4,4-difluoropiperidin-1-yl)pyridin-2-yl)-1H-1,2,3-triazol-1-yl)phenyl)methanesulfonamide] | 43 |
